From patent publication US11641858B2, “Agricultural chemicals” (Redag Crop Protection Ltd, priority 2016, dated 2023)
Where two headings read alike, the source gives them in different places.

What was measured:
[1] = test system: Phytophthora cinnamomi; assay: Amended agar assay (potato dextrose agar), reduction in colony growth; format: cell-based; settings: for EC50: read-out: Phytophthora cinnamomi (EC50); for inhibition of growth at 20 ppm: read-out: % control at 20 ppm
Experimental: (§1) Testing was carried out on potato dextrose agar (PDA) amended with each compound at test concentrations of 20, 4 and 0.8, 0.16 and 0.032 ppm. Amended agar at each test concentration was poured into three replicate 9 cm petri dishes. Each replicate dish was inoculated in the centre with a 5 mm agar plug taken from the leading edge of a culture aged between 2 and 7 days old; the age of the culture was dependant on the growth rate of the pathogen being tested. The test pathogens were Pythium ultimum and Phytophthora cinnamomi. Plates were incubated at 18° C. and the diameter of each colony measured before growth on the fastest growing plate reached the plate edge. This varied between 2 and 7 days depending on the growth rate of test pathogens. The % reduction in colony growth compared to the control was calculated for each test concentration and pathogen combination.
(§2) The results are shown in Table 1 in which * represents an average control of up to 50% at said dosage; ** represents an average control of 50% or greater but less than 80% at said dosage; and *** represents an average control of 80% or greater at said dosage.
(§3) A primary screen was also conducted for a number of other compounds of the invention. The screen was conducted at 20 ppm and the results are provided in Table 2, in which D represents no control detected at this concentration; C represents up to 50% control; B from 50 to 99% control; and A represents a control of greater than 99%.
(§4) Alternatively, or in addition, the same assay was conducted at descending test concentrations with 5-fold dilutions typically down to 0.032 ppm, and an EC50 (the concentration at which 50% control would be achieved) was determined. The results are provided in Table 1 in which G represents an EC50 above 20 ppm, F represents an EC50 of 2-20 ppm and E represents and EC50 less than 2 ppm.

[2] = test system: Pythium ultimum; assay: as above; format: cell-based; settings: for inhibition of growth at 20 ppm / EC50: Globisporangium ultimum; for inhibition of growth at 20 ppm: read-out: % control at 20 ppm; for EC50: read-out: Pythium ultimum (EC50)
Experimental: as §1, §2, §3, §4

[3] = descending test concentrations, 5-fold dilutions typically down to 0.032 ppm
[4] = Pythium ultimum, primary screen at 20 ppm

| EC50 [1, 3] [µg/mL] | EC50 [2, 3] [µg/mL] | Structure (SMILES) | also measured |
| --- | --- | --- | --- |
| < 2 | < 2 | Cn1nnnc1-n1c(OCc2cccc(NC(=O)C(F)(F)Oc3ccccc3)n2)nc2ccc(F)cc21 [Example 6] | control over the fungal pathogens tested (in words) ([1]; primary screen at 20 ppm): excellent control; inhibition of growth at 20 ppm ([1]; primary screen at 20 ppm): > 99%; inhibition of growth at 20 ppm [2, 4]: > 99%; control over the fungal pathogens tested (in words) [2, 4]: excellent control |
| < 2 | < 2 | CCC(C)C(=O)Nc1cccc(COc2nc3ccccc3n2-c2nnnn2C)n1 (stereo not shown) [Example 51] | – |
| 2 to 20 | < 2 | Cc1nccnc1-n1c(OCc2cccc(NC(=O)C(F)(F)Oc3ccccc3)n2)nc2ccccc21 [Example 56] | – |
| < 2 | < 2 | Cn1nnnc1-n1c(OCc2cccc(NC(=O)CC3CC3)n2)nc2ccccc21 [Example 40] | – |
| < 2 | < 2 | CCCOC(=O)Nc1cccc(COc2nc3ccccc3n2-c2nnnn2C)n1 [Example 21] | – |
| 2 to 20 | > 20 | Cn1nnnc1-n1c(OCc2cccc(NC(=O)C[S+](C)[O-])n2)nc2ccccc21 (stereo not shown) [Example 52, N-(6-(((1-(1-Methyl-1H-tetrazol-5-yl)-1H-benzo[d]imidazol-2-yl)oxy)methyl)pyridin-2-yl)-2-(methylsulfinyl)acetamide] | – |
| < 2 | < 2 | CCCCOC(=O)Nc1cccc(COc2nc3ccccc3n2-c2nnnn2C)n1 [Example 13] | – |
| < 2 | < 2 | CCC(=O)Nc1cccc(COc2nc3ccccc3n2-c2nnnn2C)n1 [Example 28] | – |
| < 2 | < 2 | CCCCCOC(=O)Nc1cccc(COc2nc3ccccc3n2-c2nnnn2C)n1 [Example 16] | – |
| < 2 | 2 to 20 | Cn1nnnc1-n1c(OCc2cccc(NC(=O)CS(C)(=O)=O)n2)nc2ccccc21 [Example 53, N-(6-(((1-(1-methyl-1H-tetrazol-5-yl)-1H-benzo[d]imidazol-2-yl)oxy)methyl)pyridin-2-yl)-2-(methylsulfonyl)acetamide] | – |
| < 2 | < 2 | Cn1nnnc1-n1c(OCc2cccc(NC(=O)OC3CCCC3)n2)nc2ccccc21 [Example 12] | – |
| < 2 | < 2 | Cn1nnnc1-n1c(OCc2cccc(NC(=O)CCC(C)(C)C)n2)nc2ccccc21 [Example 45] | – |
| < 2 | < 2 | CC(C)CCC(=O)Nc1cccc(COc2nc3ccccc3n2-c2nnnn2C)n1 [Example 49] | – |
| < 2 | < 2 | Cn1nccc1-n1c(OCc2cccc(NC(=O)C(F)(F)Oc3ccccc3)n2)nc2ccccc21 [Example 4] | inhibition of growth at 20 ppm ([1]; primary screen at 20 ppm): 50 to 99%; inhibition of growth at 20 ppm [2, 4]: 50 to 99% |
| < 2 | < 2 | Cn1nnnc1-n1c(OCc2cccc(NC(=O)C(F)(F)Oc3ccccc3)n2)nc2c(F)cc(F)cc21 [Example 55] | – |
| < 2 | < 2 | Cn1nnnc1-n1c(OCc2cccc(NC(=O)CC3CCCC3)n2)nc2ccccc21 [Example 22, 2-Cyclopentyl-N-(6-(((1-(1-methyl-1H-tetrazol-5-yl)-1H-benzo[d]imidazol-2-yl)oxy)methyl)pyridin-2-yl)acetamide] | – |
| > 20 | > 20 | O=C(Nc1cccc(COc2nc3ccccc3n2-c2ccon2)n1)C(F)(F)Oc1ccccc1 [Example 9] | – |
| < 2 | < 2 | CCCC(=O)Nc1cccc(COc2nc3ccccc3n2-c2nnnn2C)n1 [Example 30] | – |
| < 2 | < 2 | C=CCC(=O)Nc1cccc(COc2nc3ccccc3n2-c2nnnn2C)n1 [Example 50] | – |
| > 20 | > 20 | O=C(Nc1cccc(COc2[nH]c3ccccc3c2-c2ncncc2Cl)n1)C(F)(F)Oc1ccccc1 [Example 69, N-(6-(((3-(5-Chloropyrimidin-4-yl)-1H-indol-2-yl)oxy)methyl)pyridin-2-yl)-2,2-difluoro-2-phenoxyacetamide] | – |
| > 20 | – | Cc1cccnc1-n1c(OCc2cccc(NC(=O)C(F)(F)Oc3ccccc3)n2)nc2ncccc21 [Example 66] | inhibition of growth at 20 ppm [2, 4]: 50 to 99% |
| < 2 | < 2 | COCCOC(=O)Nc1cccc(COc2nc3ccccc3n2-c2nnnn2C)n1 [Example 20] | – |

| EC50 [1, 3] [µg/mL] | EC50 [2, 3] [µg/mL] | Structure (SMILES) | also measured |
| --- | --- | --- | --- |
| < 2 | < 2 | CSCCC(=O)Nc1cccc(COc2nc3ccccc3n2-c2nnnn2C)n1 [Example 41] | – |
| – | – | O=C(Nc1cccc(COc2nc3ccccc3n2-c2ncccc2Br)n1)C(F)(F)Oc1ccccc1 [Example 62] | inhibition of growth at 20 ppm ([1]; primary screen at 20 ppm): < 50%; inhibition of growth at 20 ppm [2, 4]: < 50% |
| – | – | Cc1noc(-n2c(OCc3cccc(NC(=O)C(F)(F)Oc4ccccc4)n3)nc3ccccc32)c1C [Example 5, N-(6-(((1-(3,4-Dimethylisoxazol-5-yl)-1H-benzo[d]imidazol-2-yl)oxy)methyl)pyridin-2-yl)-2,2-difluoro-2-phenoxyacetamide] | inhibition of growth at 20 ppm ([1]; primary screen at 20 ppm): < 50%; inhibition of growth at 20 ppm [2, 4]: 50 to 99% |
| > 20 | > 20 | C#CCC(=O)Nc1cccc(COc2nc3ccccc3n2-c2nnnn2C)n1 [Example 48] | – |
| < 2 | < 2 | Cn1nnnc1-n1c(OCc2cccc(NC(=O)C3CCCC3)n2)nc2ccccc21 [Example 23] | – |
| < 2 | < 2 | Cn1nnnc1-n1c(OCc2cccc(NC(=O)C(F)(F)Oc3ccccc3)n2)nc2ccc(C#N)cc21 [Example 60] | – |
| < 2 | < 2 | COCCC(=O)Nc1cccc(COc2nc3ccccc3n2-c2nnnn2C)n1 [Example 42] | – |
| < 2 | < 2 | Cn1nnnc1-n1c(OCc2cccc(NC(=O)COCc3ccccc3)n2)nc2ccccc21 [Example 24] | – |
| < 2 | < 2 | Cn1nnnc1-n1c(OCc2cccc(NC(=O)c3ccccc3)n2)nc2ccccc21 [Example 27] | – |
| < 2 | < 2 | CC(C)COC(=O)Nc1cccc(COc2nc3ccccc3n2-c2nnnn2C)n1 [Example 18] | – |
| – | – | Cn1nnnc1-n1c(OCc2cccc(NC(=O)Oc3ccccc3)n2)nc2ccccc21 [Example 15] | EC50 [1]: < 2 µg/mL; EC50 [2]: < 2 µg/mL |
| < 2 | < 2 | Cn1nnnc1-n1c(OCc2cccc(NC(=O)OC(C)(C)C)n2)nc2c(F)cc(F)cc21 [Example 58] | – |
| < 2 | < 2 | Cn1ccnc1-n1c(OCc2cccc(NC(=O)OC(C)(C)C)n2)nc2ccccc21 [Example 57] | – |
| < 2 | < 2 | Cn1nnnc1-n1c(OCc2cccc(NC(=O)OCc3ccccc3)n2)nc2ccccc21 [Example 14] | – |
| < 2 | < 2 | Cn1nnnc1-n1c(OCc2cccc(NC(=O)C3CCCCC3)n2)nc2ccccc21 [Example 35] | – |
| < 2 | < 2 | Cn1nnnc1-n1c(OCc2cccc(NC(=O)c3ccccn3)n2)nc2ccccc21 [Example 37, N-(6-(((1-(1-methyl-1H-tetrazol-5-yl)-1H-benzo[d]imidazol-2-yl)oxy)methyl)pyridin-2-yl)picolinamide] | – |
| > 20 | > 20 | O=C(Nc1cccc(COc2nc3ccccc3n2-c2ccccn2)n1)C(F)(F)Oc1ccccc1 [Example 7] | – |
| < 2 | < 2 | Cn1nnnc1-n1c(OCc2cccc(NC(=O)c3ccc(C#N)cc3)n2)nc2ccccc21 [Example 43] | – |
| 2 to 20 | 2 to 20 | COCC(=O)Nc1cccc(COc2nc3ccccc3n2-c2nnnn2C)n1 [Example 33] | – |
| < 2 | < 2 | CSCC(=O)Nc1cccc(COc2nc3ccccc3n2-c2nnnn2C)n1 [Example 39, N-(6-(((1-(1-methyl-1H-tetrazol-5-yl)-1H-benzo[d]imidazol-2-yl)oxy)methyl)pyridin-2-yl)-2-(methylthio)acetamide] | – |
| – | – | Cc1cc(-n2c(OCc3cccc(NC(=O)C(F)(F)Oc4ccccc4)n3)nc3ccccc32)sn1 [Example 8] | inhibition of growth at 20 ppm [2, 4]: < 50% |
